How the values were obtained:
SUM159 PACR cells = test: Cell viability IC50 in SUM159 PACR cells; details: SUM159 PACR
NAMEC8 [1] = test: Lipidomic analysis (LC-MS/MS); format: cell-based, human; details: NAMEC8 bexarotene vs DMSO
Text: Lipids from cell pellets were extracted using butanol:methanol (1:1) as extraction solvent. The extraction solvent included an internal standard mixture consisting of 17:0 LPC (Lysophosphocholine), C14 LPE (Lysophosphoethanolamine), C17 Ceramide, C17 phosphocholine, C17 phosphoserine, C17:0 PG, C8-Ceramide, DMPE (1,2-dimyristoyl-glycero-3-phosphoethanolamine), DMPG (1,2-dimyristoyl-glycero-3-phospho-(1′rac-glycerol), DMPS (dimyristoyl-glycero-phosphoserine), 12:0 DG (1,2-dilauroyl-sn-glycerol), C8 GluCer (D-glucosyl-β1-1′-N-octanoyl-D-erythro-sphingosine), 24:0 SM (N-lignoceroyl-D-erythro-sphingosylphosphorylcholine), 24:1 SM (N-nervonoyl-D-erythro-sphingosylphosphorylcholine), d5-TAG 48:0. All the standards were obtained from Avanti Polar Lipids (Alabaster, AL, USA) except for d5-TAG 48:0 that was obtained from CDN isotopes. All standards were added to a final concentration of 100 ng/ml. 100 μl of the extraction solvent including the standards were added to 1×10^7 cells in a vial containing the cell pellet. The mixture was vortexed for 15 s. […]
Samples were analysed with a liquid chromatography-tandem mass spectrometry (LC-MS/MS) system (Agilent 1290 UHPLC connected to Agilent 6490 QQQ). […] Lipids were quantified in positive multiple reaction monitoring (MRM) mode. […] Data were extracted using MassHunter Quantitative Analysis software (Agilent). […]

NAMEC8 [2] = test: Dose response to Raloxifene HCl of bexarotene-treated cells; format: cell-based, human; details: bexarotene-treated vs DMSO cells
Text: Data were normalized to vehicle controls.

BC24.1 and BC33.1 = test: EMT and lineage markers in patient-derived ER+, luminal-like tumor cell lines; format: cell-based, human
Experimental: Breast tissue biopsies from cancer patients were obtained from National Cancer Centre Singapore (NCCS) with patients' consent and under an IRB approved protocol (2015/2976). Tissue was digested with 1 mg/ml collagenase IV (Gibco) and 1 mg/ml dispase II (Thermo Fisher Scientific) in F12 media for 2 h while shaking in a 37° C. incubator. Cell suspension was then put through a cell strainer and centrifuged for 10 min at 1500 rpm. Cells were then washed twice and resuspended in media before seeding on irradiated 3T3 feeders as previously described. When confluent, sub-culturing was carried out by first lifting the feeders using 0.15% trypsin for 2 min. […]
Cells were rinsed twice in ice-cold PBS. Total RNA was extracted using Trizol (Invitrogen) and column-purified with RNeasy kits (Qiagen). cDNA synthesis was performed with 500 ng of total RNA at 37° C. for 2 h using the SuperScript III First-Strand Synthesis System (Thermo Fisher Scientific), and subsequently diluted 5-fold. mRNA levels were measured with gene-specific primers listed below using the ABI Prism 7900HT Sequence Detection System 2.2 (Applied Biosystems). Results were normalized to GAPDH and analyzed using SDS 2.2 software.
Cells were harvested and scraped from culture dishes in ice-cold PBS. […] Protein concentrations were determined using Coomaisse Blue. […]

MCF7-Ras = test: Tumor growth of ex vivo pre-treated MCF7-Ras injected subcutaneously; format: in vivo, NSG mice; details: ex vivo treatment before injection
Experimental: All animal experiments were approved by the Agency for Science Technology and Research Singapore-Biological Resource Centre IACUC (Protocol number 140940). For pre-treated SUM159 and MCF7-Ras cells, 1×10^6 cells were suspended in 100 μl media containing 50% matrigel and injected subcutaneously into both flanks of female NSG mice. The NSG mice were checked for tumor by palpation once a week and tumors were harvested when they reached ˜15 mm in diameter. For treatment in NSG mice, 1×10^5 NAMEC8-Ras cells were suspended in 100 μl media containing 50% matrigel and injected subcutaneously into both flanks of NSG mice. The NSG mice were checked for tumor formation by palpation and when tumors were about 3 mm, mice were randomized into two groups: vehicle (5% DMSO in corn oil) and treatment (Bexarotene, 100 mg/kg/day oral dosing). Tumor size was measured every week using Vernier calipers and mice were sacrificed when tumors reached ˜15 mm or after ˜4 weeks of treatment. For patient-derived cells, 2×10^6 cells were injected subcutaneously per site in NSG mice.

## C=C(c1ccc(C(=O)O)cc1)c1cc2c(cc1C)C(C)(C)CCC2(C)C [Bexarotene]
SUM159 PACR cells
  sensitivity to 5-FU of bexarotene-treated PACR cells: gained sensitivity to an alternative chemotherapeutic drug, 5-flurouracil (5-FU)
NAMEC8 [1]
  lipid species content (PI, PG, PC, PE, PS): dramatically increased
NAMEC8 [2]
  difference in drug sensitivity to Raloxifene hydrochloride: moderate two-fold
BC24.1 and BC33.1
  expression of epithelial/mesenchymal or luminal/basal markers: no dramatic change in the expression of the epithelial/mesenchymal or luminal/basal markers
MCF7-Ras
  tumor cell growth: no impact on the tumor cell growth was observed
